From US8410310B2, “Trypsin-like serine protease inhibitors, and their preparation and use” (The Medicines Company (Leipzig) GmbH, priority 2006, dated 2013)
Read-outs that look alike come from different tables or passages of the source.

What was measured:
Format in all cases: biochemical
[1] = molecular target: Xa (Homo sapiens, UniProt P00742); assay: Determination of inhibition constants for Xa
Method: (§1) The inhibitory effect for the individual enzymes was determined in analogy to a previously disclosed method (Stürzebecher et al., 1997).
(§2) For zero order kinetics, the reaction was stopped after 20 min by adding 25 μl of acetic acid (50% v/v), and the absorption at 405 nm was determined using a Microplate Reader (Multiscan Ascent, from Thermo). In the case of pseudo-first order kinetics, the reaction rates in the equilibrium state were ascertained by recording the reaction kinetics. The Ki values were ascertained either in accordance with Dixon (1953) by linear regression using a computer program or by parameter fitting in accordance with the rate equation for competitive inhibition. The Ki values are the average of at least two determinations.

[2] = molecular target: plasmin (Homo sapiens, UniProt P00747); assay: Determination of inhibition constants for plasmin; set-up: purchased Calbiochem
Chain of plasmin (P00747 581-810 limits assumed): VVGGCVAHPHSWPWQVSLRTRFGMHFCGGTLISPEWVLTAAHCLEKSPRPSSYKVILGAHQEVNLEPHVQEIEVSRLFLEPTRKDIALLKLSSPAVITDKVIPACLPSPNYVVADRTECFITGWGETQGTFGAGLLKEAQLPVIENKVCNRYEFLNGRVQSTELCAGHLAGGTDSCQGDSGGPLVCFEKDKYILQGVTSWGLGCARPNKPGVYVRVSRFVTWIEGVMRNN
Chain of plasmin (P00747 97-580 partner limits assumed): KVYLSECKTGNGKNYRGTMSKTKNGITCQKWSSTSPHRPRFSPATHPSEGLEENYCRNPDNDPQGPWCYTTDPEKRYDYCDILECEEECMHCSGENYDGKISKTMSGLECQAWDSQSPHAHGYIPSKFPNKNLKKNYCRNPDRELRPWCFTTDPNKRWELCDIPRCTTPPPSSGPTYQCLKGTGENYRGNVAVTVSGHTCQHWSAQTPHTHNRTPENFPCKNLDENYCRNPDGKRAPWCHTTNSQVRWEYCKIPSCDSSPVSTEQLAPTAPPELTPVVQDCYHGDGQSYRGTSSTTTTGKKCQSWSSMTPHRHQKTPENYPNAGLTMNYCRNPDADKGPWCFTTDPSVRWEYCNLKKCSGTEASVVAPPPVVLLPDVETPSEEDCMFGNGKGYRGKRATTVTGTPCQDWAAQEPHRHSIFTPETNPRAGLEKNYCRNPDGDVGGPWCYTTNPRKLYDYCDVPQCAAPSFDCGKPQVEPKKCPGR
Method: as §1, §2

[3] = molecular target: Thrombin (Homo sapiens, UniProt P00734); assay: Determination of inhibition constants for thrombin
Method: as §1, §2

[4] = molecular target: plasma kallikrein (Homo sapiens, UniProt P03952); assay: Determination of inhibition constants for PK; set-up: purchased Enzyme Research Lab. / Enzyme Research Laboratories
Chain of plasma kallikrein (P03952 391-638 limits assumed): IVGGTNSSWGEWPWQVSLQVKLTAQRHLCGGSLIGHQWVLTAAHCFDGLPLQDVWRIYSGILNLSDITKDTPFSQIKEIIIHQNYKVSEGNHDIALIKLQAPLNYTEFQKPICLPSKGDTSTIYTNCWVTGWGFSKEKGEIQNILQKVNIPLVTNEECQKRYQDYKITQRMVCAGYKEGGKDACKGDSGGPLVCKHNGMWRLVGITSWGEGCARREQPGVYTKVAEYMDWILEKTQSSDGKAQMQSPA
Chain of plasma kallikrein (P03952 20-390 partner limits assumed): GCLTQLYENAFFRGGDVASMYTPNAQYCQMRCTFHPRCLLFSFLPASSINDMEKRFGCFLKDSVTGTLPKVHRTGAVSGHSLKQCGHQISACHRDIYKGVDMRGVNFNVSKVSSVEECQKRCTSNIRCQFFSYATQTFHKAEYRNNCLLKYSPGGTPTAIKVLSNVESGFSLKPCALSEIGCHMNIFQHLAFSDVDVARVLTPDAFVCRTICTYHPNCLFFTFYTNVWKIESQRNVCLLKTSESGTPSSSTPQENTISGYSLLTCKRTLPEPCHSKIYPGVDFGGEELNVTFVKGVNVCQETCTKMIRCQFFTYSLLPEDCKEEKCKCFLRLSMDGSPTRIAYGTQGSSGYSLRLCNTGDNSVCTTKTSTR
Method: as §1, §2

[5] = 25° C., substrate Chromozym PL, pH 8.0, read-out: Plasmin [Ki]
[6] = 25° C., substrate S2302, pH 8.0, read-out: PK [Ki]
[7] = summary of results, read-out: Ki value of the plasmin inhibition
[8] = summary of results, read-out: Ki value of the plasma kallikrein inhibition

Chain of Xa (P00742 235-488 limits assumed): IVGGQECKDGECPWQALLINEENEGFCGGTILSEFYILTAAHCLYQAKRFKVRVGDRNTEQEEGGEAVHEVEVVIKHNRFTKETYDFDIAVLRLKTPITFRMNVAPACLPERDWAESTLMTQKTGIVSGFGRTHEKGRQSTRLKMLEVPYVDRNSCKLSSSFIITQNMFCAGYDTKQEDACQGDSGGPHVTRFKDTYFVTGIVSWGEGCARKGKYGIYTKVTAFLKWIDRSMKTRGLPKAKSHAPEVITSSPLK
Chain of Xa (P00742 41-179 limits assumed): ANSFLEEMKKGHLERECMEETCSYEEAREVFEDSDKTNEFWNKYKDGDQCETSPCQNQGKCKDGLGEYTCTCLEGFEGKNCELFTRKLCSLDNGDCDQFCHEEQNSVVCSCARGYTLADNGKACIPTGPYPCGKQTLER

| SMILES | Ki [1] [µM] | Ki [2, 5] [µM] | Ki [3] [µM] | Ki [4, 6] [µM] | Ki [2, 7] [µM] | Ki [4, 8] [µM] |
| --- | --- | --- | --- | --- | --- | --- |
| N=C(N)c1ccc(CNC(=O)[C@H](Cc2cccc(CN)c2)NC(=O)[C@@H](CCCc2ccc(C(F)(F)F)cc2)NS(=O)(=O)Cc2ccccc2)cc1 [compound 11] | < 0.01 | < 0.01 | < 1 | < 0.01 | – | – |
| N=C(N)c1ccc(CNC(=O)[C@H](CCc2ccccc2)NC(=O)[C@@H](CCCc2ccccc2)NS(=O)(=O)Cc2ccc(C(=O)O)cc2)cc1 [compound 35] | < 1 | < 0.01 | < 1 | < 0.01 | < 0.005 | – |
| N=C(N)c1ccc(CNC(=O)[C@H](CCc2ccncc2)NC(=O)[C@@H](CCc2ccccc2)NS(=O)(=O)Cc2ccccc2)cc1 [compound 44] | < 0.1 | < 0.1 | < 0.1 | < 0.1 | – | – |
| N#Cc1cccc(C[C@@H](NS(=O)(=O)Cc2ccccc2)C(=O)N[C@@H](CCc2ccncc2)C(=O)NCc2ccc(C(=N)N)cc2)c1 [compound 45] | < 1 | < 0.01 | < 0.1 | < 0.01 | – | – |
| N=C(N)c1ccc(CNC(=O)[C@H](Cc2cccc(CN)c2)NC(=O)[C@@H](CCCc2ccccc2Cl)NS(=O)(=O)Cc2ccccc2)cc1 [compound 8] | < 0.1 | < 0.01 | < 0.1 | < 0.01 | – | – |
| N=C(N)c1ccc(CNC(=O)[C@H](Cc2cccc(CN)c2)NC(=O)[C@@H](Cc2cccc3ccccc23)NS(=O)(=O)Cc2ccccc2)cc1 [compound 15] | < 0.1 | < 0.01 | < 0.1 | < 0.01 | – | – |
| N=C(N)c1ccc(CNC(=O)[C@H](CCc2ccccc2)NC(=O)[C@@H](CCCc2ccccc2)NS(=O)(=O)Cc2cccc(C(=O)O)c2)cc1 [compound 36] | < 0.1 | < 0.01 | < 1 | < 0.01 | – | – |
| N=C(N)c1ccc(CNC(=O)[C@H](CCc2ccc(CN)cc2)NC(=O)[C@@H](CCCc2ccccc2)NS(=O)(=O)Cc2ccccc2)cc1 [compound 31] | < 1 | < 0.01 | < 0.1 | < 0.1 | – | – |
| N=C(N)c1ccc(CNC(=O)[C@H](Cc2c[nH]cn2)NC(=O)[C@@H](CCCc2ccccc2)NS(=O)(=O)Cc2cccc(C(=O)O)c2)cc1 [compound 33] | < 1 | < 0.01 | > 1 | < 0.1 | – | – |
| N=C(N)c1ccc(CNC(=O)[C@H](CCc2ccccc2)NC(=O)[C@@H](CCCc2ccncc2)NS(=O)(=O)Cc2ccccc2)cc1 [compound 49] | < 0.1 | < 0.01 | < 0.1 | < 0.01 | – | – |
| N=C(N)c1ccc(CNC(=O)[C@H](Cc2cccc(CN)c2)NC(=O)[C@@H](CCCC2CCCCC2)NS(=O)(=O)Cc2ccccc2)cc1 [compound 21] | < 0.1 | < 0.01 | < 1 | < 0.01 | – | – |
| N=C(N)c1ccc(CNC(=O)[C@H](Cc2c[nH]cn2)NC(=O)[C@@H](CCCc2ccccc2)NS(=O)(=O)Cc2ccccc2)cc1 [compound 32] | < 1 | < 0.01 | < 0.1 | < 0.1 | – | – |
| N=C(N)c1ccc(CNC(=O)[C@H](CCCc2ccccc2)NC(=O)[C@@H](CCc2ccncc2)NS(=O)(=O)Cc2ccccc2)cc1 [compound 48] | < 0.01 | < 0.01 | < 1 | < 0.01 | – | – |
| CC(C)(C)OC[C@@H](NS(=O)(=O)Cc1ccccc1)C(=O)N[C@@H](CCc1ccc(C(=N)N)cc1)C(=O)NCc1ccc(C(=N)N)cc1 [compound 77] | < 1 | < 0.01 | < 0.1 | < 0.01 | – | – |
| N=C(N)c1ccc(CNC(=O)[C@H](CCc2ccccc2)NC(=O)[C@@H](CCCc2ccc[n+]([O-])c2)NS(=O)(=O)Cc2ccccc2)cc1 [compound 55] | < 0.01 | < 0.01 | < 0.1 | < 0.01 | – | – |
| N=C(N)c1ccc(CNC(=O)[C@H](CCc2ccccc2)NC(=O)[C@@H](CCCc2ccc[n+]([O-])c2)NS(=O)(=O)Cc2cccc(C(=O)O)c2)cc1 [compound 56] | < 0.01 | < 0.01 | < 1 | < 0.01 | – | – |
| N=C(N)c1ccc(CNC(=O)[C@H](Cc2ccc(CN)cc2)NC(=O)[C@@H](CCCc2ccccc2)NS(=O)(=O)Cc2ccccc2)cc1 [compound 28] | < 1 | < 0.01 | < 1 | < 0.01 | – | – |
| N=C(N)c1ccc(CNC(=O)[C@H](CCc2ccncc2)NC(=O)[C@@H](CCCc2ccccc2)NS(=O)(=O)Cc2ccccc2)cc1 [compound 39] | < 0.1 | < 0.01 | < 0.01 | < 0.01 | < 0.005 | < 0.001 |
| N=C(N)c1ccc(CNC(=O)[C@H](Cc2cccc(CN)c2)NC(=O)[C@H](NS(=O)(=O)Cc2cccc(C(=O)O)c2)C(c2ccccc2)c2ccccc2)cc1 [compound 23] | < 0.1 | < 0.01 | < 0.1 | < 0.01 | – | – |
| N=C(N)c1ccc(CC[C@H](NC(=O)[C@@H](CC2CCCCC2)NS(=O)(=O)Cc2ccccc2)C(=O)NCc2ccc(C(=N)N)cc2)cc1 [compound 38] | < 0.1 | < 0.01 | < 0.01 | < 0.1 | < 0.005 | – |
| N=C(N)c1ccc(CNC(=O)[C@H](CCc2ccncc2)NC(=O)[C@@H](CCCc2ccccc2)NS(=O)(=O)Cc2cccc(C(=O)O)c2)cc1 [compound 40] | < 1 | < 0.01 | < 0.1 | < 0.01 | – | < 0.001 |
| N=C(N)c1ccc(CNC(=O)[C@H](CCc2ccccc2)NC(=O)[C@@H](CCCc2cc[n+]([O-])cc2)NS(=O)(=O)Cc2ccccc2)cc1 [compound 53] | < 0.01 | < 0.01 | < 0.1 | < 0.01 | – | – |

More lines, now with the values ahead:

| Ki [1] [µM] | Ki [2, 5] [µM] | Ki [3] [µM] | Ki [4, 6] [µM] | Ki [2, 7] [µM] | Ki [4, 8] [µM] | SMILES |
| --- | --- | --- | --- | --- | --- | --- |
| > 1 | < 0.1 | > 1 | < 0.01 | – | – | N=C(N)c1ccc(CNC(=O)[C@H](Cc2cccc(CN)c2)NC(=O)[C@@H](CO)NS(=O)(=O)Cc2ccccc2)cc1 [compound 68] |
| > 1 | < 0.1 | > 1 | < 0.01 | – | – | N=C(N)c1ccc(CC[C@H](NC(=O)[C@@H](CO)NS(=O)(=O)Cc2ccccc2)C(=O)NCc2ccc(C(=N)N)cc2)cc1 [compound 78] |
| < 1 | < 0.1 | > 1 | < 0.01 | – | – | N=C(N)c1ccc(CNC(=O)[C@H](Cc2cccc(CN)c2)NC(=O)[C@@H](CCCCN)NS(=O)(=O)Cc2ccccc2)cc1 [compound 59] |
| < 1 | < 0.01 | < 1 | < 0.01 | – | – | N=C(N)c1ccc(CNC(=O)[C@H](Cc2cccc(CN)c2)NC(=O)[C@@H](Cc2ccc3ccccc3c2)NS(=O)(=O)Cc2ccc(C(=O)O)cc2)cc1 [compound 19] |
| > 1 | < 0.1 | > 1 | < 0.01 | – | – | N=C(N)c1ccc(CNC(=O)[C@H](Cc2cccc(CN)c2)NC(=O)[C@@H](CO)NS(=O)(=O)Cc2ccc(C(=O)O)cc2)cc1 [compound 70] |
| < 0.1 | < 0.1 | < 1 | < 0.01 | < 0.005 | – | CC(C)(C)c1ccc(C[C@@H](NS(=O)(=O)Cc2ccccc2)C(=O)N[C@@H](Cc2cccc(CN)c2)C(=O)NCc2ccc(C(=N)N)cc2)cc1 [compound 13] |
| < 1 | < 0.01 | < 1 | < 0.01 | – | – | N=C(N)c1ccc(CNC(=O)[C@H](Cc2cccc(CN)c2)NC(=O)[C@@H](Cc2cccc3ccccc23)NS(=O)(=O)Cc2ccc(C(=O)O)cc2)cc1 [compound 16] |
| < 0.1 | < 0.01 | > 1 | < 0.01 | – | – | CC(C)(C)OC[C@@H](NS(=O)(=O)Cc1cccc(C(=O)O)c1)C(=O)N[C@@H](Cc1cccc(CN)c1)C(=O)NCc1ccc(C(=N)N)cc1 [compound 67] |
| < 0.1 | < 0.01 | > 1 | < 0.01 | – | – | COC(=O)c1cccc(CS(=O)(=O)N[C@H](COC(C)(C)C)C(=O)N[C@@H](Cc2cccc(CN)c2)C(=O)NCc2ccc(C(=N)N)cc2)c1 [compound 66] |
| < 0.1 | < 0.01 | < 1 | < 0.01 | – | – | N=C(N)c1ccc(CNC(=O)[C@H](Cc2cccc(CN)c2)NC(=O)[C@@H](CC2CCCCC2)NS(=O)(=O)Cc2ccccc2)cc1 [compound 20] |
| > 1 | < 0.1 | > 1 | < 0.01 | – | – | COC(=O)c1ccc(CS(=O)(=O)N[C@H](CO)C(=O)N[C@@H](Cc2cccc(CN)c2)C(=O)NCc2ccc(C(=N)N)cc2)cc1 [compound 69] |
| < 1 | < 0.1 | > 1 | < 0.01 | – | – | CC(C)(C)OC(=O)NC[C@@H](NS(=O)(=O)Cc1ccccc1)C(=O)N[C@@H](Cc1cccc(CN)c1)C(=O)NCc1ccc(C(=N)N)cc1 [compound 60] |
| < 0.1 | < 0.01 | > 1 | < 0.01 | – | – | CC(C)(C)OC(=O)NCCCC[C@@H](NS(=O)(=O)Cc1ccccc1)C(=O)N[C@@H](Cc1cccc(CN)c1)C(=O)NCc1ccc(C(=N)N)cc1 [compound 57] |
| < 0.01 | < 0.01 | < 1 | < 0.01 | – | – | N=C(N)c1ccc(CNC(=O)[C@H](Cc2cccc(CN)c2)NC(=O)[C@@H](CCc2ccc(O)cc2)NS(=O)(=O)Cc2ccccc2)cc1 [compound 24] |
